From US10538497B2, “Compounds as indoleamine 2,3-dioxygenase inhibitors” (Merck Sharp & Dohme Corp., priority 2015, dated 2020)

Experiments:
[1] = biological target: T1, IDO1 (Homo sapiens (Human), UniProt P14902); experiment: IDO1 Cellular Assay in Frozen HEK293 Cells Transiently Transfected with Human IDO1; type: cell-based; settings: HEK293 cells transiently transfected with human IDO1; read-out: IDO1 HEK293 Cell Assay, IC50
[2] = biological target: T1, IDO1; experiment: IDO1 Cellular Assay in Hela Cells Stimulated with IFNγ; type: cell-based; settings: Hela cells stimulated with IFNγ 100 ng/mL; read-out: IDO1 HELA Cell Assay, IC50
[3] = biological target: T1, IDO1; experiment: IDO1 Enzyme Assay; settings: HIS-tagged recombinant IDO1, 40 nM
[4] = read-out: IDO1 Enzyme Assay, IC50

T1 sequence (P14902 whole entry): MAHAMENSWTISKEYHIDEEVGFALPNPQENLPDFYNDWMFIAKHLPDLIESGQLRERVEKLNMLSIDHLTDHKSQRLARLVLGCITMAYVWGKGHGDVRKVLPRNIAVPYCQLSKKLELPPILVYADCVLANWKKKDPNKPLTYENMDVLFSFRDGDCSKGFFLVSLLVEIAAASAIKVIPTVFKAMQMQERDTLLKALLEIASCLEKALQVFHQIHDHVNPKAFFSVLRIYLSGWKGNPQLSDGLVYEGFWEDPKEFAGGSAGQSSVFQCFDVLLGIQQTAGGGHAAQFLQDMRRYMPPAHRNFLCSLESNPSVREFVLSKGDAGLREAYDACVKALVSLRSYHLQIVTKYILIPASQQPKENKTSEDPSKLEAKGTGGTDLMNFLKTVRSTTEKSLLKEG

IC50 [1] [nM]	IC50 [2] [nM]	IC50 [3, 4] [nM]	IC50 ([3]; IDO1 Enzyme Assay, IC50, nM) [nM]	Compound
166	331	–	97.6	ON=C(Nc1ccc(F)c(Br)c1)c1nonc1SCCc1cscn1 [Example 152, N-(3-bromo-4-fluorophenyl)-N′-hydroxy-4-{[2-(1,3-thiazol-4-yl)ethyl]sulfanyl}-1,2,5-oxadiazole-3-carboximidamide]
65.7	69.4	–	85.4	Cn1ccnc1CSc1nonc1C(=NO)Nc1ccc(F)c(Br)c1 [Example 153, N-(3-bromo-4-fluorophenyl)-N′-hydroxy-4-{[(1-methyl-1H-imidazol-2-yl)methyl]sulfanyl}-1,2,5-oxadiazole-3-carboximidamide]
26.1	41	–	31.4	ON=C(Nc1ccc(F)c(Br)c1)c1nonc1SCCn1cncn1 [Example 154, N-(3-bromo-4-fluorophenyl)-N′-hydroxy-4-{[2-(1H-1,2,4-triazol-1-yl)ethyl]sulfanyl}-1,2,5-oxadiazole-3-carboximidamide]
218	301	–	77.7	Cc1nc(CSc2nonc2C(=NO)Nc2ccc(F)c(Br)c2)no1 [Example 155, N-(3-bromo-4-fluorophenyl)-N′-hydroxy-4-{[(5-methyl-1,2,4-oxadiazol-3-yl)methyl]sulfanyl}-1,2,5-oxadiazole-3-carboximidamide]
46.9	114	–	58.8	ON=C(Nc1ccc(F)c(Br)c1)c1nonc1SCc1ncon1 [Example 156, N-(3-bromo-4-fluorophenyl)-N′-hydroxy-4-[(1,2,4-oxadiazol-3-ylmethyl)sulfanyl]-1,2,5-oxadiazole-3-carboximidamide]
104	113	–	63.8	ON=C(Nc1ccc(F)c(Br)c1)c1nonc1SCc1nccs1 [Example 157, N-(3-bromo-4-fluorophenyl)-N′-hydroxy-4-[(1,3-thiazol-2-ylmethyl)sulfanyl]-1,2,5-oxadiazole-3-carboximidamide]
72	233	–	95.7	ON=C(Nc1ccc(F)c(Br)c1)c1nonc1SCC1CCCNC1 (stereo not drawn) [Example 158, N-(3-bromo-4-fluorophenyl)-N′-hydroxy-4-[(piperidin-3-ylmethyl)sulfanyl]-1,2,5-oxadiazole-3-carboximidamide]
81.7	153	–	105	ON=C(Nc1ccc(F)c(Br)c1)c1nonc1SCc1c[nH]cn1 [Example 159, N-(3-bromo-4-fluorophenyl)-N′-hydroxy-4-[(1H-imidazol-4-ylmethyl)sulfanyl]-1,2,5-oxadiazole-3-carboximidamide]
61	126	–	65.7	ON=C(Nc1ccc(F)c(Br)c1)c1nonc1SCCF [Example 160, N-(3-bromo-4-fluorophenyl)-4-[(2-fluoroethyl)sulfanyl]-N′-hydroxy-1,2,5-oxadiazole-3-carboximidamide]
188	341	–	169	CC#CCSc1nonc1C(=NO)Nc1ccc(F)c(Br)c1 [Example 161, N-(3-bromo-4-fluorophenyl)-4-(but-2-yn-1-ylsulfanyl)-N′-hydroxy-1,2,5-oxadiazole-3-carboximidamide]

Second part, the molecule before the results:

Compound	IC50 [1] [nM]	IC50 [2] [nM]	IC50 [3, 4] [nM]	IC50 ([3]; IDO1 Enzyme Assay, IC50, nM) [nM]
CN1C(=O)NC[C@H]1CSc1nonc1/C(=N/O)Nc1ccc(F)c(Br)c1 [Example 121, N-(3-bromo-4-fluorophenyl)-N′-hydroxy-4-({[(4S)-3-methyl-2-oxoimidazolidin-4-yl]methyl}sulfanyl)-1,2,5-oxadiazole-3-carboximidamide]	45.8	39.7	47.7	–
CN1C[C@@H](CSc2nonc2/C(=N/O)Nc2ccc(F)c(Br)c2)NC1=O [Example 122, N-(3-bromo-4-fluorophenyl)-N′-hydroxy-4-({[(4S)-1-methyl-2-oxoimidazolidin-4-yl]methyl}sulfanyl)-1,2,5-oxadiazole-3-carboximidamide]	23.3	26.7	37.7	–
CN1C[C@H](CSc2nonc2/C(=N/O)Nc2ccc(F)c(Br)c2)NC1=O [Example 123, N-(3-bromo-4-fluorophenyl)-N′-hydroxy-4-({[(4R)-1-methyl-2-oxoimidazolidin-4-yl]methyl}sulfanyl)-1,2,5-oxadiazole-3-carboximidamide]	37.8	75.7	44.2	–
O=C1NCC(CSc2nonc2/C(=N/O)Nc2ccc(F)c(Br)c2)O1 (stereo not drawn) [Example 124, N-(3-bromo-4-fluorophenyl)-N′-hydroxy-4-{[(2-oxo-1,3-oxazolidin-5-yl)methyl]sulfanyl}-1,2,5-oxadiazole-3-carboximidamide]	65.6	56.2	34.5	–
O/N=C(\Nc1ccc(F)c(Br)c1)c1nonc1SCCN1CCOCC1 [Example 126, N-(3-bromo-4-fluorophenyl)-N′-hydroxy-4-[(2-morpholin-4-ylethyl)sulfanyl]-1,2,5-oxadiazole-3-carboximidamide]	52.9	92.6	57.5	–
CCCCNC(=O)NCCSc1nonc1C(=NO)Nc1ccc(F)c(Br)c1 [Example 127, N-(3-bromo-4-fluorophenyl)-4-({2-[(bulylcarbamoyl)amino]ethyl}sulfanyl)-N′-hydroxy-1,2,5-oxadiazole-3-carboximidamide]	115	219	33.5	–
CCOC(=O)NC(=O)NCCSc1nonc1C(=NO)Nc1ccc(F)c(Br)c1 [Example 128, ethyl {[2-({4-[N-(3-bromo-4-fluorophenyl)-N′-hydroxycarbamimidoyl]-1,2,5-oxadiazol-3-yl}sulfanyl)ethyl]carbamoyl} carbamate]	149	169	110	–
O=C(NCCSc1nonc1C(=NO)Nc1ccc(F)c(Br)c1)NC1CCCC1 [Example 129, N-(3-bromo-4-fluorophenyI)-4-({2-[(cyclopentylcarbamoyl)amino]ethyl}sulfanyl)-N′-hydroxy-1,2,5-oxadiazole-3-carboximidamide]	258	702	35.3	–
O=C(NCCSc1nonc1C(=NO)Nc1ccc(F)c(Br)c1)NCC1CCOCC1 [Example 130, N-(3-bromo-4-fluorophenyl)-N′-hydroxy-4-[(2-{[(tetrahydro-2H-pyran-4-ylmethyl)carbamoyl]amino}ethyl)sulfanyl]-1,2,5-oxadiaxole-3-carboximidamide]	206	371	37	–
O=C(NCCSc1nonc1C(=NO)Nc1ccc(F)c(Br)c1)NCc1ccco1 [Example 131, N-(3-bromo-4-fluorophenyl)-4-[(2-{[(furan-2-ylmethyl)carbamoyl]amino}ethyl)sulfanyl]-N′-hydroxy-1,2,5-oxadiazole-3-carboximidamide]	66.7	167	–	34.1
COCCNC(=O)NCCSc1nonc1C(=NO)Nc1ccc(F)c(Br)c1 [Example 132, N-(3-bromo-4-fluorophenyl)-N′-hydroxy-4-[(2-{[(2-methoxyethyl)carbamoyl]amino}ethyl)sulfanyl]-1,2,5-oxadiazole-3-carboximidamide]	33.1	31.7	–	32.1
Cn1c(CSc2nonc2/C(=N/O)Nc2ccc(F)c(Cl)c2)n[nH]c1=O [Example 133, N-(3-chloro-4-fluorophenyl)-N′-hydroxy-4-{[(4-methyl-5-oxo-4,5-dihydro-1H-1,2,4-triazol-3-yl)methyl]sulfanyl}-1,2,5-oxadiazole-3-carboximidamide]	226	235	71.5	–
CC(O)CNC(=O)CSc1nonc1C(=NO)Nc1ccc(F)c(Br)c1 (stereo not drawn) [Example 138, 2-({4-[N-(3-bromo-4-fluorophenyl)-N′-hydroxycarbamimidoyl]-1,2,5-oxadiazol-3-yl}sulfanyl)-N-(2-hydroxypropyl)acetamide]	60	54.7	–	38.7
O=c1[nH]nc(CCSc2nonc2/C(=N/O)Nc2ccc(F)c(Br)c2)o1 [Example 141, N-(3-bromo-4-fluorophenyl)-N′-hydroxy-4-{[2-(5-oxo-4,5-dihydro-1,3,4-oxadiazol-2-yl)ethyl]sulfanyl}-1,2,5-oxadiazole-3-carboximidamide]	131	112	72.2	–
CC(=O)NCCSc1nonc1/C(=N/O)Nc1ccc(F)c(C(F)F)c1 [Example 142, N-{2-[(4-{N-[3-(difluoromethyl)-4-fluorophenyl]-N′-hydroxycarbamimidoyl}-1,2,5-oxadiazol-3-yl)sulfanyl]ethyl}acetamide]	46.9	57.2	54	–
C[C@@H](O)[C@@H](CO)NC(=O)CSc1nonc1/C(=N/O)Nc1ccc(F)c(Br)c1 [Example 143, 2-({4-[N-(3-bromo-4-fluorophenyl)-N′-hydroxycarbamimidoyl]-1,2,5-oxadiazol-3-yl}sulfanyl)-N-[(1R,2R)-2-hydroxy-1-(hydroxymethyl)propyl]acetamide]	65.1	34.8	53.9	–
CN1C(=O)NC[C@@H]1CSc1nonc1/C(=N/O)Nc1ccc(F)c(C#N)c1 [Example 150, N-(3-cyano-4-fluorophenyl)-N′-hydroxy-4-({[(4R)-3-methyl-2-oxoimidazolidin-4-yl]methyl}sulfanyl)-1,2,5-oxadiazole-3-carboximidamide]	422	820	173	–
Cc1nccn1CCSc1nonc1C(=NO)Nc1ccc(F)c(Br)c1 [Example 151, N-(3-bromo-4-fluorophenyl)-N′-hydroxy-4-{[2-(2-methyl-1H-imidazol-1-yl)ethyl]sulfanyl}-1,2,5-oxadiazole-3-carboximidamide]	79.3	156	–	96.3
